Columns and labels:
[1] = 1H NMR competition of dodecamethylbambus[6]uril-HCl complex with tetrabutylammonium tetrafluoroborate, association constant; type: binding; details: CD3OD:CDCl3=2:1, equimolar mixture, overall concentration 5 mM
Experimental: (§1) Equimolar mixture of dodecamethylbambus[6]uril-HCl complex and tetrabutylammonium bearing bromide, iodide, and tetrafluoroborate anions was dissolved in the mixture of CD3OD:CDCl3=2:1 to obtain solution in which overall concentration of dissolved solids was 5 mM. In all cases obtained ^1H NMR spectrum was identical with the spectrum of corresponding complex (see Example 20-22). As signals corresponding to dodecamethylbambus[6]uril-HCl complex were not observed the value of association constants for all complexes was calculated to be higher than 5×10^4 M^−1.

[2] = 1H NMR competition of dodecamethylbambus[6]uril-HCl complex with tetrabutylammonium iodide, association constant; type: binding; details: CD3OD:CDCl3=2:1, equimolar mixture, overall concentration 5 mM
Experimental: as §1

[3] = Solubility of anion free macrocycle in studied solvent systems; type: physicochemical; details: anion free form; chloroform, methanol, DMSO, acetonitrile, water or the mixtures of these solvents
Experimental: Dodecamethylbambus[6]uril-HI complex (0.5 g) was dissolved in the mixture of chloroform (50 ml) and methanol (50 ml). 30% H2O2 (0.25 ml) was added and the solution was stirred at room temperature for 24 h. The resulting white precipitate was collected by filtration and washed with equimolar mixture of chloroform and methanol. […] When tetrabutylammonium bearing bromide, iodide, and tetrafluoroborate anions is added to the suspension of obtained white powder in equimolar mixture of chloroform and methanol the immediate formation of transparent solution was observed. ^1H NMR spectra of the solutions correspond to the spectra of the complex between dodecamethylbambus[6]uril and corresponding anion.
Titanium dioxide powder (Aeroxide P25, typically 0.1 mg) was suspended in a solution of dodecamethylbambus[6]uril-HI complex (5.0 mM) in acetonitrile/water (1:1, 0.5 mL) in a standard quartz UV cuvette. The mixture was purged with oxygen for 5 min and irradiated at either wave lengths 254 or 366 nm. After 4 h white precipitated of anion free dodecamethylbambus[6]uril was obtained in 87% yield. […]

[4] = 1H NMR competition of dodecamethylbambus[6]uril-HCl complex with tetrabutylammonium bromide, association constant; type: binding; details: CD3OD:CDCl3=2:1, equimolar mixture, overall concentration 5 mM
Experimental: as §1

solubility of the anion free powder [3]: does not dissolve
Structure (SMILES): CN1C(=O)N(C)[C@@H]2[C@H]1N1CN3C(=O)N(CN4C(=O)N(CN5C(=O)N(CN6C(=O)N(CN7C(=O)N(CN2C1=O)[C@@H]1[C@H]7N(C)C(=O)N1C)[C@@H]1[C@H]6N(C)C(=O)N1C)[C@@H]1[C@H]5N(C)C(=O)N1C)[C@@H]1[C@H]4N(C)C(=O)N1C)[C@@H]1[C@H]3N(C)C(=O)N1C [dodecamethylbambus[6]uril, Dodecamethylbambus[6]uril]
association constant of complex with tetrafluoroborate anion [1]: higher than 5×10^4 M^−1
association constant of complex with iodide anion [2]: higher than 5×10^4 M^−1
association constant of complex with bromide anion [4]: higher than 5×10^4 M^−1
